Assay results as given in US6967244B1 (priority 1988, dated 2005).
Entries after “also recorded” stand apart in the source; their conditions may differ. Where two headings read alike, the source gives them in different places.

Columns and labels:
[1] = target: T1, receptor from mouse muscle alpha1, gamma, delta and beta2 mRNAs (Mus musculus, UniProt P02716+P04756+P04760); format: cell-based, mouse/rat
T1 construct: expressed in transfected cells; host or cells: Xenopus laevis oocytes injected with in vitro transcribed capped RNA
Method: (§1) To examine this hypothesis, a test was made to determine whether the beta2 subunit could substitute for one of the mouse muscle receptor subunits. This was done by injecting into Xenopus oocytes various combinations of mRNA encoding the beta2 subunit and the muscle receptor subunits (α1, β1, […], and δ).
(§2) Mature Xenopus laevis (Xenopus I, Madison, Wis.) were used as the source of oocytes. Oocytes were treated with 1 mg/ml type II collagenase (Sigma Chemical Co., St. Louis, Mo.) for two hours at room temperature. The ovarian epithelium and follicle cells were then removed by manual dissection. Each oocyte was injected with 0.5 to 5 ng of RNA transcribed and capped with diguanosine triphosphate in vitro, in a 50 nl volume of water. Injected oocytes were incubated in Barth's saline at 20° C. prior to electrophysiological recordings.
(§3) Recordings were obtained from oocytes placed in a groove at the base of a narrow perspex chamber of 0.5 ml volume. Oocytes were perfused at up to 40 ml/min. with a control solution that consisted of 10 mM HEPES (pH 7.2), 115 mM NaCl, 1.8 mM CaCl2 2.5 mM KCl, and […] atropine. Then oocytes were perfused with agonists or antagonists (added to the control perfusing solution), followed by a wash with control solution. Voltage recordings were made with the bridge circuit of the Dagan 8500 voltage clamp unit on oocytes injected 2–7 days previously. The recordings were obtained at room temperature (20–25° C.) with micropipettes filled with 3M KCl. A resting potential more negative than −30 mV was required for inclusion of a particular oocyte in these studies.
Experiment 1: Oocytes taken from the same animal were injected at the same time with equivalent amounts of the indicated mRNA combinations. […] Values presented are means±S.E. (n=6).
Values, presented are means±S.E. (n=5). The complete set of mouse muscle mRNAs were not tested in this experiment.

[2] = target: T2, alpha4 + beta2 neuronal nicotinic acetylcholine receptor (Rattus norvegicus, UniProt P09483+P12390); format: cell-based
T2 construct: linker-coded start (ATG and a few residues from a synthetic EcoRI/HindIII linker) (N); expressed in transfected cells; host or cells: Xenopus laevis oocytes injected with in vitro transcribed capped RNA

[3] = target: T3, nAChR formed after the injection of alpha2 and beta2 mRNAs (Rattus norvegicus, UniProt P12389+P12390); format: cell-based
T3 construct: only the HYP16 clone contains an open reading frame for the entire alpha2 protein; expressed in transfected cells; host or cells: Xenopus oocytes injected with in vitro transcribed mRNA
Method: as §2, §3
The PCX49 clone is derived from the beta2 gene and is believed to encode a non-agonist-binding subunit. (Boulter, et al., 1987; Deneris, et al., 1988). […] We tested whether oocytes injected with either alpha2 (n=22) or beta2 (n=21) mRNA alone would produce a depolarizing response to ACh.

[4] = target: T4, alpha3 + beta2 neuronal nicotinic acetylcholine receptor (Rattus norvegicus, UniProt P04757+P12390); format: cell-based
T4 construct: a complete signal peptide and the entire mature protein; expressed in transfected cells; host or cells: Xenopus laevis oocytes injected with in vitro transcribed capped RNA

PC12 cell receptor = target: T5, PC12 cell receptor (Rattus norvegicus, UniProt P04757); settings: cited from earlier work
T5 construct: endogenous in cells; host or cells: PC12 (rat pheochromocytoma) cells

[5] = target: mouse muscle nicotinic acetylcholine receptor α1β1γδ (Mus musculus, UniProt P02716+P04756+P04760); format: cell-based
Method: as §1, §2
as §3, with “The recordings were obtained at room temperature (20–25° C.) with micropipettes filled with 3M KCl. A resting potential more negative than −30 mV was required for inclusion of a particular oocyte in these studies.” left out

T2 sequence (P12390 25-500): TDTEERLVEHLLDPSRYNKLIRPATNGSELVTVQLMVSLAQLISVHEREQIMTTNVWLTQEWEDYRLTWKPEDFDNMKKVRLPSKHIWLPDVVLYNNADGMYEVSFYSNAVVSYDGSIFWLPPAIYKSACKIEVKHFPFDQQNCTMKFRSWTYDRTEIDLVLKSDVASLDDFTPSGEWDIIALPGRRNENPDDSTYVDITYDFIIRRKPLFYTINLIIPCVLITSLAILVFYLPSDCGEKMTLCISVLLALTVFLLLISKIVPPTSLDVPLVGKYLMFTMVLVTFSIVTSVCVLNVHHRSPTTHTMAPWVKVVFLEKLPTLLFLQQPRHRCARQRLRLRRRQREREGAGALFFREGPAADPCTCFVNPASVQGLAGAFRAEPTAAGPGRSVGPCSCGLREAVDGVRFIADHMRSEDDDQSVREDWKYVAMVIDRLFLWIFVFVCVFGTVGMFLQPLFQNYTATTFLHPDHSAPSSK
T2 sequence (P09483 31-630): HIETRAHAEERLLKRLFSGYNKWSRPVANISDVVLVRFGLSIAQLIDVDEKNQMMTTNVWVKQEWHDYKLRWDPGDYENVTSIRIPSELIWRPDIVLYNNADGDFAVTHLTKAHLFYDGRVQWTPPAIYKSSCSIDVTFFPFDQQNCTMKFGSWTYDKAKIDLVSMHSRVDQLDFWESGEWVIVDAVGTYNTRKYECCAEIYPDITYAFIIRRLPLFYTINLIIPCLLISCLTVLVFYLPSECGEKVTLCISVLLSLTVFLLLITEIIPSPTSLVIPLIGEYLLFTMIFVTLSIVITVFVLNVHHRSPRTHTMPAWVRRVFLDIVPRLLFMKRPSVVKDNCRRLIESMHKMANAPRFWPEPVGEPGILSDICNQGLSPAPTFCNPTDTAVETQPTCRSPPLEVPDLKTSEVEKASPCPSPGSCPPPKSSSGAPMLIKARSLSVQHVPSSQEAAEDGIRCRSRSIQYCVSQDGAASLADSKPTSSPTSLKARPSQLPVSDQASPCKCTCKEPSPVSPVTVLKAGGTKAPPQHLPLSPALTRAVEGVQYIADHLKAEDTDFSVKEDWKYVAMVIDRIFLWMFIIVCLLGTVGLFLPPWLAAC
T4 sequence (P12390 25-500): as the sequence (P12390 25-500) above
T4 sequence (P04757 26-499): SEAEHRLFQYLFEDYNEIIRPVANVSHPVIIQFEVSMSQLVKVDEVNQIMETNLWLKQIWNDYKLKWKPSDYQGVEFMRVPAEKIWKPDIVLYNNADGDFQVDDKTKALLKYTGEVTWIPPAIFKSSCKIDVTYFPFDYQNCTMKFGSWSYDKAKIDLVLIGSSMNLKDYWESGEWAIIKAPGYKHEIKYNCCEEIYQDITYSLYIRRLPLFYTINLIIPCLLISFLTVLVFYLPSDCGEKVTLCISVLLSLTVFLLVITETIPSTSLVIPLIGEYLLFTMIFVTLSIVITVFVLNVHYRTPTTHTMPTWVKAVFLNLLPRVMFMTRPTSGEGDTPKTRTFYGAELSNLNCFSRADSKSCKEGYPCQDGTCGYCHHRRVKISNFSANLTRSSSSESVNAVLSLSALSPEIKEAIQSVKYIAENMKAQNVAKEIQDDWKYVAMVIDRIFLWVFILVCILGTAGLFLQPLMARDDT
T3 sequence (P12390 25-500): as the sequence (P12390 25-500) above
T3 sequence (P12389 28-511): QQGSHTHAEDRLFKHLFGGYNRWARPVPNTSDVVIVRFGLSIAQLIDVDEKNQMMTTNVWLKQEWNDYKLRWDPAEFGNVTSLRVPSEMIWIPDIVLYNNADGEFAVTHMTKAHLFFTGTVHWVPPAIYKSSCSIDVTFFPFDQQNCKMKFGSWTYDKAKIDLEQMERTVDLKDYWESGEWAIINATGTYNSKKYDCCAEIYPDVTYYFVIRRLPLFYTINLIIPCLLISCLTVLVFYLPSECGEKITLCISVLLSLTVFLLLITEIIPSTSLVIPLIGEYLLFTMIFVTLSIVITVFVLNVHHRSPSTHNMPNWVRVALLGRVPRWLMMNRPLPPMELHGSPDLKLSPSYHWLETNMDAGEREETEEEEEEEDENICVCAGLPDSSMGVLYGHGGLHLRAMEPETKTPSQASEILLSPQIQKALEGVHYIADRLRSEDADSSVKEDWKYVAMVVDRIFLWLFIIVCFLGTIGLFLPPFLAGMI
T1 sequence (P04760 23-519): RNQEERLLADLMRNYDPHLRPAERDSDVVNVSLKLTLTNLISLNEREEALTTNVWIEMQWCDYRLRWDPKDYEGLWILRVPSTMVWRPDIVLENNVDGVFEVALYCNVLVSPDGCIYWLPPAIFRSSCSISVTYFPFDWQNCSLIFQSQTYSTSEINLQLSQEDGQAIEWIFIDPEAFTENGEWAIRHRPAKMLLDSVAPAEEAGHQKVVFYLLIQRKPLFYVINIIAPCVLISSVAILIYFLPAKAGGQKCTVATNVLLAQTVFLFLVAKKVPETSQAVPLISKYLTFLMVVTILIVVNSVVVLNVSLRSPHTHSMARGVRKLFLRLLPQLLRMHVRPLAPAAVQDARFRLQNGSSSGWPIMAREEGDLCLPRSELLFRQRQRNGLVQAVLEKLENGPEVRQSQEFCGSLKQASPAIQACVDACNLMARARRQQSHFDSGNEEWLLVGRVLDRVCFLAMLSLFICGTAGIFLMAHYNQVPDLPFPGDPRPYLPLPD
T1 sequence (P12390 25-500, further chain): as the sequence (P12390 25-500) above
T1 sequence (P04756 21-457): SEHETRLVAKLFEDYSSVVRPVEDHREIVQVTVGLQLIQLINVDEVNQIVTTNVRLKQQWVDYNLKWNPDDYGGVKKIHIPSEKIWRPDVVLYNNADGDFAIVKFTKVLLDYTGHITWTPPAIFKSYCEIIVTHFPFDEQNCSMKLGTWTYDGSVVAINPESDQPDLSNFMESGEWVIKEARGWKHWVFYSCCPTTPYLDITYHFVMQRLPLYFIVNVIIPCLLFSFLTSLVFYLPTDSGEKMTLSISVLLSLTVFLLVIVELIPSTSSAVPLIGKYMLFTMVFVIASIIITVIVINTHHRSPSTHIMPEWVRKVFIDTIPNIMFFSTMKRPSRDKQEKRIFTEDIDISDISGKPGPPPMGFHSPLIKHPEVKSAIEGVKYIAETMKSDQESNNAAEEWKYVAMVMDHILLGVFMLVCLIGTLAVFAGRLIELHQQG
T1 sequence (P02716 25-520): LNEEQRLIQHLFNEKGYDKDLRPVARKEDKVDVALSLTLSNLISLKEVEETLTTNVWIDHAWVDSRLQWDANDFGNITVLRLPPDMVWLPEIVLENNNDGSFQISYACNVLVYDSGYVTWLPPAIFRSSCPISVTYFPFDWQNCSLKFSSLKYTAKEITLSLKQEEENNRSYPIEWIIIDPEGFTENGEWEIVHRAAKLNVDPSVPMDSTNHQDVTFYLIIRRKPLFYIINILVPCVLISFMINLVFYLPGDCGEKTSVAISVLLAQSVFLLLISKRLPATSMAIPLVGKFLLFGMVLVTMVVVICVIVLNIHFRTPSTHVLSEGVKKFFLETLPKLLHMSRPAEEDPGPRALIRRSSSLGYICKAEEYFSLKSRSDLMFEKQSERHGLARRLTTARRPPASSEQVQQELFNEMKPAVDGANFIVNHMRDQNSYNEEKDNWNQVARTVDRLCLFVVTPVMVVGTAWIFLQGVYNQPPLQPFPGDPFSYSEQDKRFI
Chain of mouse muscle nicotinic acetylcholine receptor α1β1γδ (P04760 23-519): as the sequence (P04760 23-519) above
Chain of mouse muscle nicotinic acetylcholine receptor α1β1γδ (P09690 24-501, further chain): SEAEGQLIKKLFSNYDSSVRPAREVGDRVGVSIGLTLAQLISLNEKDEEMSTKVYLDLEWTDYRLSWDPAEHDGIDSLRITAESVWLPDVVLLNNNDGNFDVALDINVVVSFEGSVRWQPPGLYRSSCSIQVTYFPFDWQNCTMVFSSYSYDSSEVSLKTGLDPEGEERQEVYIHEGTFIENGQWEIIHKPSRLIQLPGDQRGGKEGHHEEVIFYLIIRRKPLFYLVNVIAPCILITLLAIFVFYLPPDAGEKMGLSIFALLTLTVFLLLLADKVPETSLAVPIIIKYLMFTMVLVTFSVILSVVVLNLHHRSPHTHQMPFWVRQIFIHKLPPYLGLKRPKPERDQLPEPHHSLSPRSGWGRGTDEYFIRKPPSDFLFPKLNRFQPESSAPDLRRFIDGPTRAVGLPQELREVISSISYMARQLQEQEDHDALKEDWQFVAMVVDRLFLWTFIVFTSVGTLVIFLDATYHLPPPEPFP
Chain of mouse muscle nicotinic acetylcholine receptor α1β1γδ (P02716 25-520): as the sequence (P02716 25-520) above
Chain of mouse muscle nicotinic acetylcholine receptor α1β1γδ (P04756 21-457): as the sequence (P04756 21-457) above
T5 sequence (P04757 26-499): as the sequence (P04757 26-499) above

CN1CCCC1c1cccnc1 (centres unmarked) [nicotine]
Depolarizations elicited by nicotine [1]: depolarizations could be elicited
Depolarizing response to nicotine [2]: strong and reproducible membrane depolarizations; also recorded: depolarizing responses
Depolarizing response to nicotine [3]: strong and reproducible depolarizing responses; also recorded: elicited a depolarizing response
Depolarizing response to nicotine [4]: strong and reproducible membrane depolarizations; also recorded: depolarizing responses

α-bungarotoxin
Functional block of the receptor by toxin (PC12 cell receptor): neither of these receptors are functionally blocked
Block of the response to acetylcholine [1]: completely blocked
Block of the receptor by toxin [5]: blocked
Functional blockade of the acetylcholine response by toxin [2]: resistant
Δ, mV After Toxin [2]: 32.7 ± 6.4 mV
Δ, mV After Toxin [3]: +32 ± 2 mV
Functional blockade of the acetylcholine response by toxin [4]: neither of these receptors are functionally blocked; also recorded: resistant
Δ, mV After Toxin [4]: 24.8 ± 3.3 mV

C[N+](C)(C)CCCCCC[N+](C)(C)C [hexamethonium]
Blockade of the acetylcholine response by antagonist or toxin [3]: could be blocked
Δ (mV) Agonist + Antagonist ([3]; Ach 1 μM + antagonist 100 μM, n=4): +0.4 ± 0.4 mV

COc1cc2c3cc1Oc1cc(ccc1O)C[C@@H]1c4c(cc(OC)c(O)c4Oc4ccc(cc4)C[C@@H]3N(C)CC2)CC[N+]1(C)C [d-tubocurarine]
Block of depolarizations ([1]; alpha1, beta2, gamma, delta mRNAs, 100 mM d-tubocurarine): blocked
Blockade of the acetylcholine response by antagonist or toxin [3]: could be blocked
Δ (mV) Agonist + Antagonist ([3]; Ach 5 μM + antagonist 100 μM, n=3): +2.0 ± 0.4 mV
